Data published in ChEMBL document CHEMBL1201862, “PubChem BioAssay data set” (2004).
Active and inactive are the calls of the source.

Legend:
[1] = target: T1, Kappa-type opioid receptor (Homo sapiens, UniProt P41145); assay: SAR analysis of small molecule agonists of the kappa opioid receptor via a luminescent beta-arrestin assay - Set 3. [Related pubchem assays (depositor defined):AID1777, AID1785, AID1786, AID1966, AID2133, AID2136, AID2284, AID2500]; format: functional
[2] = target: Delta-type opioid receptor (Homo sapiens, UniProt P41143); assay: SAR Analysis of Agonists of the DOR Receptor using an Image-Based Assay - Set 3. [Related pubchem assays (depositor defined):AID1777, AID1786]; format: functional
Mu-type opioid receptor = Mu-type opioid receptor (Homo sapiens, UniProt P35372); assay: SAR Analysis of Agonists of the MOR Receptor using an Image-Based Assay - Set 3. [Related pubchem assays (depositor defined):AID1777, AID1785, AID1786, AID1966, AID2133, AID2136, AID2284, AID2285, AID2352]; format: functional
[3] = target: T1, Kappa-type opioid receptor; assay: KOR agonist analogs, arrestin-GFP redistribution, SAR follow-up, imaging, image-based, set 3 (AID 488833); format: functional
[4] = target: T2, E3 ubiquitin-protein ligase XIAP (Homo sapiens, UniProt P98170); assay: Chemical Antagonists of IAP-family anti-apoptotic proteins confirmation. [Related pubchem assays (depositor defined):AID1018, AID1513, AID1514, AID1638, AID1749, AID1750, AID488957, AID488963]
[5] = target: T2, E3 ubiquitin-protein ligase XIAP; assay: Counter Screen using XIAP-Bir3 of the Chemical Antagonists of IAP-family anti-apoptotic proteins confirmation assay. [Related pubchem assays (depositor defined):AID1018, AID1449, AID1513, AID1638, AID1749, AID1750, AID488957, AID488963]
[6] = target: Signal transducer and activator of transcription 1-alpha/beta (Homo sapiens, UniProt P42224); assay: STAT3 inhibitors, late-stage profile, late-stage follow-up, cell-based, STAT1 panel, qPCR, cytotoxicity, panel member STAT1 Inhibition (AID 2078)
[7] = target: T3, COUP transcription factor 2 (Homo sapiens, UniProt P24468); assay: Luminescence-based cell-based high throughput dose response assay to identify inhibitors of COUP-TFII (NR2F2).; format: functional;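 note: HEK293 cells transiently cotransfected with COUP-TFII expression vector and reporter; luciferase reporter luminescence driven by COUP-TFII from the pX2-168 reporter plasmid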
T3 sequence (P24468 whole entry): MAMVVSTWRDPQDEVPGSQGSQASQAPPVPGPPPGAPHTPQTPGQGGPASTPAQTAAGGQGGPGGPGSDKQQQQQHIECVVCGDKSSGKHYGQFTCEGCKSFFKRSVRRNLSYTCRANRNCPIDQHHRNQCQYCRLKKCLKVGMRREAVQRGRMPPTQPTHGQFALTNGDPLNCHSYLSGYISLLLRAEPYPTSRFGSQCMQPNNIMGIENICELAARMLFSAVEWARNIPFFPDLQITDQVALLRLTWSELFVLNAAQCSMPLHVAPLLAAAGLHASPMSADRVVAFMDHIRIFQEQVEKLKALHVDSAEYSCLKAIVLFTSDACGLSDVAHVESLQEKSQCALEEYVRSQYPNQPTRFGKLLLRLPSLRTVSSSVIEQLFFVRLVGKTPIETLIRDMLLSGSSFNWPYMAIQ

[8] = target: Signal transducer and activator of transcription 3 (Homo sapiens, UniProt P40763); assay: STAT3 inhibitors, late-stage profile, late-stage follow-up, cell-based, STAT1 panel, qPCR, cytotoxicity, panel member STAT3 Inhibition (AID 2078)
[9] = target: Induced myeloid leukemia cell differentiation protein Mcl-1 (Homo sapiens, UniProt Q07820); format: functional
[10] = target: T4, Runt-related transcription factor 1/Core-binding factor subunit beta (Homo sapiens, UniProt Q01196+Q13951); assay: inhibitors of RUNX1 Runt–CBFb-SMMHC binding, biochemical, TR-FRET (AID 1438); format: protein assay
NS3 = NS3 (Hepatitis C virus, UniProt A3EZJ3); assay: PubChem AID 2173; parameters: species or system Hepacivirus hominis
[11] = target: T5, Voltage-gated N-type calcium channel alpha-1B subunit/Amyloid beta A4 precursor protein-binding family A member 1 (Homo sapiens, UniProt Q00975+Q02410); assay: disruptors of Mint-PDZ/N-type channel peptide interaction – biochemical, HTRF, SAR follow-up (AID 2489); format: functional
[12] = target: T4, Runt-related transcription factor 1/Core-binding factor subunit beta; assay: inhibitors of RUNX1 Runt–CBFb-SMMHC binding, primary screen, biochemical, FRET, Cerulean-Runt, Venus-CBFb-SMMHC, uHTS (AID 1434); format: protein assay;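 note: partner is the CBFb-SMMHC leukemia fusion protein rather than wild-type CBFb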
[13] = target: T5, Voltage-gated N-type calcium channel alpha-1B subunit/Amyloid beta A4 precursor protein-binding family A member 1; format: protein assay
[14] = target: T5, Voltage-gated N-type calcium channel alpha-1B subunit/Amyloid beta A4 precursor protein-binding family A member 1; format: protein assay; remark: listed apart in the source
[15] = target: T6, Probable nicotinate-nucleotide adenylyltransferase (Staphylococcus aureus (strain N315), UniProt P65502); format: functional, Staphylococcus aureus subsp. aureus N315;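 for IC50 Mean: confirmatory dose-response retesting of NadD inhibitor hits first found in an ultra-high-throughput screen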
[16] = target: T6, Probable nicotinate-nucleotide adenylyltransferase; format: functional, Staphylococcus aureus subsp. aureus N315; conditions: read-out: IC50_Mean
INS1 = assay: beta cell apoptosis inhibitors, cytokine rescue, dose response, luminescence, retest (AID 449756); format: functional, cell-based; conditions: Rattus norvegicus;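 note: cell death triggered by IL-1 beta plus TNF-alpha plus IFN-gamma mixture; protective hits raise ATP signal compared with cytokine alone wells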
Troponin, cardiac muscle = Troponin, cardiac muscle (Homo sapiens, UniProt P19429+P45379+P63316); assay: Fluorescence-based biochemical high throughput dose response assay for activators of the calcium sensitivity of cardiac Regulated Thin Filaments (RTF). [Related pubchem assays (depositor defined):AID493008, AID493018, AID504382, AID504383]; format: protein-complex assay
[17] = target: Heat shock protein HSP 90-alpha (Homo sapiens, UniProt P07900); format: functional, organism-based
Streptococcus = assay: Group A Streptococcus viability loss, dose response, counter-screen for streptokinase expression inhibitor project, luminescence, BacTiterGlo (AID 1915); format: functional, organism-based;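 note: potency for reduction of bacterial viability or growth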
[18] = tested on: Streptococcus sp. 'group A'; assay: growth inhibition of control SK(-) GAS strain, dose response, counter-screen for streptokinase expression inhibitor project, luminescence, kanamycin, BacTiterGlo, confirmation (AID 1900); format: functional, organism-based
[19] = Luminescence Cell-Based Dose HTS Response to Identify Inhibitors of 5'UTR Stem-Loop Driven Prion Protein mRNA Translation in H4-C Neuroglioblastoma Cells. [Related pubchem assays (depositor defined):AID1814, AID1827]; format: functional
[20] = Luminescence Cell-Based Dose Retest to Confirm Activators of 5'UTR Stem-Loop Driven Alpha-Synuclein mRNA Translation in H4 Neuroglioblastoma Cells. [Related pubchem assays (depositor defined):AID1813, AID1829]; format: functional
[21] = cytotoxicity in HEK-293T cells, dose response, cytotoxicity control for TCR NF-kB inhibitor project, luminescence, T-cell screen hits (AID 489026); format: functional, cell-based;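 note: cells exposed to compound about 14 hours before the viability readout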
[22] = Luminescence Cell-Based Dose Confirmation HTS to Identify Inhibitors of 5'UTR Stem-Loop Driven Alpha-Synuclein mRNA Translation in H4 Neuroglioblastoma Cells. [Related pubchem assays: 1827 (Project Summary), 1813 (Primary HTS)]; format: functional
[23] = inhibitors of SNCA 5'UTR-driven reporter translation, confirmation, H4 neuroglioma cells, luminescence (AID 1988); format: functional, cell-based
[24] = Luminescence Cell-Based Dose Response HTS to Identify Activators of 5'UTR Stem-Loop Driven Prion Protein mRNA Translation in H4-C Neuroglioblastoma Cells. [Related pubchem assays: 1829 (Project Summary), 1814 (Primary HTS)]; format: functional
[25] = Luminescence Cell-Based Dose Response HTS to Identify Activators of Luciferase Translation or Activity in H4-C Neuroglioblastoma Cells. [Related pubchem assays: 1829 (Project Summary), 1814 (Primary HTS)]; format: functional
[26] = inhibitors of firefly luciferase expression or activity, dose response, H4 neuroglioma cells, luminescence (AID 1990); format: functional, cell-based
[27] = Luminescence Cell-Based Dose Response HTS to Identify Inhibitors of Luciferase Translation or Activity in H4-C Neuroglioblastoma Cells. [Related pubchem assays: 1813 (Primary HTS), 1827 (Project Summary)]; format: functional
[28] = Luminescence Cell-Based Dose Response HTS to Identify Inhibitors of 5'UTR Stem-Loop Driven Prion Protein mRNA Translation in H4 Neuroglioblastoma Cells. [Related pubchem assays: 1827 (Project Summary), 1813 (Primary HTS)]; format: functional
Cannabinoid receptor 2 [29] = target: T7, Cannabinoid receptor 2 (Homo sapiens, UniProt P34972); assay: SAR analysis of agonists of the Cannabinoid Receptor 2 using an Image-Based Assay - Set 2. [Related pubchem assays (depositor defined):AID1961, AID1965]; format: functional
Cannabinoid receptor 1 [30] = target: T8, Cannabinoid receptor 1 (Homo sapiens, UniProt P21554); assay: SAR analysis of agonists of the Cannabinoid Receptor 1 using an Image-Based Assay - Set 3. [Related pubchem assays (depositor defined):AID1961, AID1965]; format: functional
[31] = target: T9, G-protein coupled receptor 35 (Homo sapiens, UniProt Q9HC97); assay: SAR analysis of Antagonists of the GPR35 Receptor using an Image-Based Assay - Set 4. [Related pubchem assays (depositor defined):[…]]; format: functional
Cannabinoid receptor 1 [32] = target: T8, Cannabinoid receptor 1; assay: SAR analysis of antagonists of the Cannabinoid Receptor 1 using an Image-Based Assay - Set 3. [Related pubchem assays (depositor defined):AID1961, AID1965]; format: functional
[33] = target: T9, G-protein coupled receptor 35; assay: SAR analysis of Agonists of the GPR35 Receptor using an Image-Based Assay - Set 3. [Related pubchem assays (depositor defined):AID1961, AID1965]; format: functional
Cannabinoid receptor 2 [34] = target: T7, Cannabinoid receptor 2; assay: SAR analysis of antagonists of the Cannabinoid Receptor 2 using an Image-Based Assay - Set 2. [Related pubchem assays (depositor defined):AID1961, AID1965]; format: functional
[35] = target: G-protein coupled receptor 55 (Homo sapiens, UniProt Q9Y2T6); assay: SAR analysis of selective Agonists of GPR55 using an Image-Based Assay - Set 2. [Related pubchem assays (depositor defined):AID1961, AID1965]; format: functional
[36] = decrease of PhoP-driven GFP reporter signal, S. Typhimurium, dose response, PhoP regulon inhibitor project, purified and synthesized compounds, set 2 (AID 2831); format: functional
Streptokinase A = target: T10, Streptokinase A (Streptococcus pyogenes serotype M1, UniProt P10520); assay: S. pyogenes streptokinase expression inhibitors, potency, dose response, plasminogen activation absorbance, OD405 (AID 1914); format: functional, Streptococcus pyogenes M1 GAS;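 note: secreted streptokinase activity via plasminogen activation per viability signal from cell pellet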
T10 sequence (P10520 whole entry): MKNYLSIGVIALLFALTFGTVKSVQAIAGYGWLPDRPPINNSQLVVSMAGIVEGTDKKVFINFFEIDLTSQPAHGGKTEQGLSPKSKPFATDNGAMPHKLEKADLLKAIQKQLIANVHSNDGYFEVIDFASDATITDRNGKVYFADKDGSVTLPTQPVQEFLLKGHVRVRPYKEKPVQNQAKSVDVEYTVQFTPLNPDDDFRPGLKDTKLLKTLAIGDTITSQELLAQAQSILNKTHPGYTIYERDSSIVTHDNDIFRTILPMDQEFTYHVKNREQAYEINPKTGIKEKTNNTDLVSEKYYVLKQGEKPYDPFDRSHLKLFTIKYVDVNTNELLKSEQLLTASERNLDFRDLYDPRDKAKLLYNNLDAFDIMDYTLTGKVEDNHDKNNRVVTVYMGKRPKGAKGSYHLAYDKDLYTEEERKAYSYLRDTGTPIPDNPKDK

[37] = target: Peroxisome proliferator-activated receptor gamma (Homo sapiens, UniProt P37231); assay: PPARg partial agonists, dose response, cell-based, luminescence, assay provider (AID 504447); format: functional

COC(=O)c1ccc(CSc2nnc(-c3ccccn3)n2Cc2cccs2)cc1
EC50 [1]: 6.14 µM (active)
EC50 [2]: > 32 µM (inactive)
EC50 (Mu-type opioid receptor): > 32 µM (inactive)
EC50 [3]: 5.99 µM (active)

O=C(O)C(c1ccc(F)cc1)N1Cc2ccccc2C1=O (stereo unspecified)
IC50 [4]: > 200 µM (inactive)
IC50 [5]: > 200 µM (inactive)

O=C(c1ccccc1)C1CCN(c2ncnc3sccc23)CC1
IC50 [6]: > 55.7 µM (inactive)
IC50 [7]: 5.71 µM (active)
IC50 [8]: 0.688 µM (active)

O=C(COC(=O)c1c2c(nc3ccccc13)/C(=C/c1ccco1)CC2)NC1CCCC1
IC50 [9]: 6.5 µM (active)
IC50 [10]: 10.4 µM (active)
IC50 (NS3): 12.6 µM (not active)
IC50 [11]: 3.75 µM (active)
IC50 [12]: > 100 µM (inactive)
IC50 [13]: 5.81 µM (active)
IC50 [14]: 9.12 µM (active)
IC50 [15]: 6.95 µM (active)
IC50 [16]: 15 µM (active)

O=C(N/N=C/c1sc2ccccc2c1O)c1ccccc1
AC50 (INS1): 0.864 µM (active)
EC50 (Troponin, cardiac muscle): 3.91 µM (active)
AC50 [17]: 1.02 µM (active)
EC50 (Streptococcus): 10.1 µM (active)
EC50 [18]: 0.702 µM (active)

CCOC(=O)c1[nH]c(C)c(C(=O)c2cc(F)ccc2F)c1C
EC50 [19]: 0.241 µM (active)
EC50 [20]: 1.66 µM (inconclusive)
IC50 [21]: > 80 µM (inactive)
EC50 [22]: 1.66 µM (active)
EC50 [23]: 0.2 µM (active)
EC50 [24]: 0.241 µM (inconclusive)
EC50 [25]: 0.557 µM (inconclusive)
EC50 [26]: 10.6 µM (active)
EC50 [27]: 0.557 µM (active)
EC50 [28]: 11.5 µM (active)

COc1ccc(S(=O)(=O)N2CCOCC2)cc1NC(=O)c1ccc(OCC(C)C)c(OC)c1
EC50 (Cannabinoid receptor 2 [29]): > 32 µM (inactive)
EC50 (Cannabinoid receptor 1 [30]): > 32 µM (inactive)
IC50 [31]: > 32 µM (inactive)
IC50 (Cannabinoid receptor 1 [32]): > 32 µM (inactive)
EC50 [33]: > 32 µM (inactive)
IC50 (Cannabinoid receptor 2 [34]): > 32 µM (inactive)
EC50 [35]: 4.56 µM (active)

CSc1nc2cc(Cl)c(Oc3cccc(Cl)c3Cl)cc2[nH]1 [TRICLABENDAZOLE]
IC50 [36]: > 125 µM (active)
EC50 (Streptokinase A): 4.69 µM (active)
AC50 [17]: 4.25 µM (active)
EC50 (Streptococcus): 6.22 µM (active)
EC50 [18]: 2.26 µM (active)

COc1cccc(Cn2nc3c4cc(F)ccc4n(Cc4ccc(F)cc4)cc-3c2=O)c1
EC50 [37]: 0.502 µM (active)
